{
  "source": "patent USRE37727E1",
  "about": "“Method for treating nerve injury pain associated with shingles” (priority 1989, dated 2002)",
  "origin": "cited, not measured here",
  "details": "venous; reported range",
  "data": [
    {"smiles": "CCN(CC)CC(=O)Nc1c(C)cccc1C", "note": "[lidocaine]", "values": [
      {"measurement": "minimum concentrations of lidocaine for anti-arrhythmic effects", "result": "0.6 to 2.0", "unit": "µg/mL"}
    ]}
  ]
}
